Source: patent US20140057976A1, “USNIC ACID TOPICAL FORMULATION” (EVOCUTIS PLC, priority 2011, published 2014)
Marks after values point to notes of the source that are not given here.

How the values were obtained:
[1] = tested on: Propionibacterium acnes NCTC 737; test: Minimum inhibitory concentration (MIC) assay; assay type: cell-based; conditions: P. acnes NCTC 737
Procedure: (§1) The test organism used was Propionibacterium acnes NCTC 737. This is a propionibacterial strain and is the type strain of the […]; it is fully susceptible to antibiotics. The propionibacteria are clinically significant due to their involvement in acne. They are also opportunistic pathogens in compromised hosts. Activity observed against these micro-organisms is expected to be a good predictor of activity against acne.
(§2) The propionibacteria were cultured and maintained on Wilkins-Chalgren Anaerobe Medium (agar and broth) at pH 6.0; all cultures were incubated anaerobically at 37° C. for 72 hours.
This is a standard international method for quantitatively assessing the antimicrobial activity of a compound/formulation in a liquid medium. The method used a sterile 96-well microtitre plate, capable of holding about 200 μl of liquid per well. The wells contained liquid culture medium and ranges of decreasing concentrations of the relevant test compound/formulation (in this case reported as the relative concentration of the active molecule—copper usnate—in the formulations) in doubling dilutions (eg 1000, 500, 250, 125 . . . μg/ml, etc, down to 0.49 μg/ml). The culture media were as described above.
The wells were inoculated with a liquid suspension of freshly grown micro-organism and incubated under the conditions described above. After incubation, the microtitre plate was examined visually for cloudiness in each well, which would indicate microbial growth. The MIC value was recorded as the lowest concentration of test compound/formulation required to inhibit microbial growth, ie the lowest concentration for which the liquid in the well remained clear.
The assays included both negative (culture medium with no micro-organisms) and positive (culture medium plus diluting solvent plus micro-organism) controls.

[2] = tested on: Propionibacterium acnes NCTC 737; test: Minimum biocidal concentration (MBC) assay; assay type: cell-based; conditions: P. acnes NCTC 737
Procedure: as §1, §2
This assay, normally carried out after an MIC assay, determines the minimum concentration of a compound or formulation that is lethal to the test micro-organism.
These samples were then individually sub-cultured on antibiotic-free agar medium, under the incubation conditions described above. Following incubation they were examined visually for microbial growth.
The ratio of MIC to MBC should ideally be as close to 1 as possible. This facilitates selection of the lowest possible effective concentration of a test compound or formulation, with a reduced risk of selecting a sub-lethal concentration which could promote resistance or allow the target microbial population to recover.

[3] = tested on: S. aureus ATCC 29213; test: MIC against S. aureus; assay type: cell-based
[4] = tested on: S. aureus ATCC 29213; test: MBC against S. aureus; assay type: cell-based
[5] = tested on: Corynebacterium striatum NCTC 764; test: MIC against Corynebacterium striatum; assay type: cell-based
[6] = tested on: Corynebacterium striatum NCTC 764; test: MBC against Corynebacterium striatum; assay type: cell-based
[7] = tested on: P. acnes NCTC 737; test: Synthetic sebum time-to-kill assay; assay type: cell-based, Propionibacterium acnes; conditions: 49 μg/mL Cu usnate (equivalent)
Procedure: This quantitative assay was designed to assess the level of kill of a P. acnes culture in a synthetic sebum (non-aqueous environment) over a defined time period, in this case 4 hours. A culture of P. acnes NCTC 737 was inoculated into a synthetic sebum (a liquid mixture of lipid components designed to simulate human sebum) containing the relevant test compound or formulation diluted in 1-octanol. From this culture, samples were taken after 4 hours, 10-fold serially diluted in wash fluid (0.075 M sodium phosphate buffer, pH 7.9, 0.1% v/v Triton™-X 100) and inoculated onto agar plates (in triplicate). The plates were then incubated as described above and subsequently examined visually for growth. The numbers of viable microbial colonies on the plates were counted with the aid of a colony counter and converted to colony-forming units per ml (cfu/ml) using the appropriate dilution factor. Cell counts conducted in the absence of formulations (but still in the presence of 1-octanol) acted as positive controls. All experiments were conducted in triplicate.

In the case of `CC(=O)c1c([O-])c(C)c([O-])c2c1OC1=CC(=O)C(C(C)=O)C(=O)C12C.[Cu+2]` (stereo not drawn) [Copper usnate, copper (II) di-usnate], the “MIC:MBC ratio” value ([1]; Example 13) is reported as 0.25, the “MIC” value ([1]; Example 13, formulations as Cu usnate equivalent, anaerobic 37° C. 72 hours) is reported as 0.24 µg/mL and the “minimum inhibitory concentration (MIC)” value ([1]; found by the present inventors) is reported as 0.49 µg/mL. For the same compound, the “MBC” value ([2]; Example 13, formulations as Cu usnate equivalent) was 0.98 µg/mL, the “minimum biocidal concentration (MBC)” value ([2]; found by the present inventors) was 3.9 µg/mL and the MIC [3] was 7.8 µg/mL. The MBC [4] was 62.5 µg/mL, the MIC [5] was 3.9 µg/mL and the MBC [6] was 62.5 µg/mL. The “Log10 cfu/ml (T0 hours)” value ([7]; T0 hours) was 7.97 Log10 cfu/ml, the Log10 change ([7]; T0 to T4 hours) was −4.97 Log10 and the “Log10 cfu/ml (T4 hours)” value ([7]; T4 hours, lowest detectable level = 3.0 Log10 cfu/ml) was ≤ 3.0* Log10 cfu/ml.
